Values of other authors as cited in patent US10028918B2, “Nanoparticle delivery vehicle for S-nitroso-N-acetyl cysteine and uses thereof” (ALBERT EINSTEIN COLLEGE OF MEDICINE, INC., priority 2012, dated 2018).

System: rats
Conditions: normal and acute hypertension induced rats

Question: For `CC(=O)N[C@@H](CSN=O)C(=O)O` [NAC-SNO, S-nitroso-N-acetyl cysteine], which “Duration of vascular effect” value is on record?
Answer: Its value is ~9 min.
